Assays:
Assay type in all cases: in vivo
[1] = test system: sedge, umbrella (small-flower umbrella sedge, Cyperus difformis); assay: Test B flooded paddy test; details: Flood, 250 g ai/ha
Outline: (§1)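 Response scored visually against untreated controls, 0 = no effect and 100 = complete control, 13–15 d after treatment in the greenhouse. Compounds added to paddy water held 3 cm above soil surface. Treatment given at 2-leaf stage.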

[2] = test system: ducksalad (Heteranthera limosa); assay: Test B flooded paddy test; details: Flood, 250 g ai/ha
Outline: as §1

[3] = test system: barnyardgrass (Echinochloa crus-galli); assay: Test B flooded paddy test; details: Flood, 250 g ai/ha
Outline: as §1

rice (Oryra sativa) = assay: Test B flooded paddy test; details: Flood, 250 g ai/ha
Outline: as §1

Kochia (Kochia scoparia) [4] = assay: Test A postemergence
Outline: (§2)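 Treatment is preemergence as a directed soil spray after planting, or postemergence at the one- to two-leaf stage, with test chemical in a non-phytotoxic solvent mixture plus surfactant. Plants stay in the greenhouse about 10 d before visual injury scoring on a 0 to 100 scale versus untreated controls.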

[5] = test system: ragweed (common ragweed, Ambrosia elatior); assay: Test A postemergence
Outline: as §2

[6] = test system: pigweed (Amaranthus retroflexus); assay: Test A postemergence
Outline: as §2

[7] = test system: blackgrass (Alopecurus myosuroides); assay: Test A postemergence
Outline: as §2

[8] = test system: wheat (Triticum aestivum); assay: Test A postemergence
Outline: as §2

[9] = test system: ryegrass, Italian (Italian ryegrass, Lolium multiflorum); assay: Test A postemergence
Outline: as §2

corn (Zea mays) = assay: Test A postemergence
Outline: as §2

[10] = test system: barnyardgrass (Echinochloa crus-galli); assay: Test A postemergence
Outline: as §2

[11] = test system: Galium (catchweed bedstraw, Galium aparine); assay: Test A postemergence
Outline: as §2

[12] = test system: giant foxtail (Setaria faberii); assay: Test A postemergence
Outline: as §2

Kochia (Kochia scoparia) [13] = assay: Test A preemergence
Outline: as §2

[14] = test system: ragweed (common ragweed, Ambrosia elatior); assay: Test A preemergence
Outline: as §2

[15] = test system: pigweed (Amaranthus retroflexus); assay: Test A preemergence
[16] = test system: ryegrass, Italian (Italian ryegrass, Lolium multiflorum); assay: Test A preemergence
Outline: as §2

[17] = test system: barnyardgrass (Echinochloa crus-galli); assay: Test A preemergence
Outline: as §2

[18] = test system: giant foxtail (Setaria faberii); assay: Test A preemergence
Outline: as §2

[19] = scale of 0 to 100 where 0 is no effect and 100 is complete control
[20] = 125 g ai/ha, postemergence, visual injury rating after approximately 10 d
[21] = 125 g ai/ha, preemergence, 0 to 100 scale where 0 is no effect and 100 is complete control
[22] = 500 g ai/ha, Preemergence, visual injury vs untreated controls after approximately 10 d
[23] = 0 to 100 scale where 0 is no effect and 100 is complete control
[24] = 125 g ai/ha, Postemergence, visual injury after approximately 10 d, 0 to 100 scale where 0 is no effect and 100 is complete control
[25] = 500 g ai/ha, postemergence, visual injury, 0 to 100 scale (0 no effect, 100 complete control), approx. 10 d
[26] = 125 g ai/ha, Preemergence, visual injury rating after approximately 10 d
[27] = 500 g ai/ha, preemergence, visual injury rating about 10 d after treatment, 0 to 100 scale (0 no effect, 100 complete control)

Compound: O=C1NC[C@H](c2cccc(C(F)(F)F)c2)[C@H]1C(=O)Nc1ccccc1[N+](=O)[O-] [Compound 825]
- Sedge, Umbrella plant response rating [1, 19]: 0
- Ducksalad plant response rating [2, 19]: 80
- Barnyardgrass plant response rating [3, 19]: 0
- Rice plant response rating (rice (Oryra sativa); [19]): 25
- Kochia plant response rating (0 to 100 scale, 0 no effect, 100 complete control) (Kochia (Kochia scoparia) [4]; [20]): 0
- Ragweed plant response rating (0 to 100 scale, 0 no effect, 100 complete control) [5, 20]: 20
- Pigweed plant response rating (0 to 100 scale, 0 no effect, 100 complete control) [6, 20]: 0
- Blackgrass plant response rating (0 to 100 scale, 0 no effect, 100 complete control) [7, 20]: 40
- Wheat plant response rating (0 to 100 scale, 0 no effect, 100 complete control) [8, 20]: 40
- Ryegrass, Italian plant response rating (0 to 100 scale, 0 no effect, 100 complete control) [9, 20]: 20
- Corn plant response rating (0 to 100 scale, 0 no effect, 100 complete control) (corn (Zea mays); [20]): 20
- Barnyardgrass plant response rating (0 to 100 scale, 0 no effect, 100 complete control) [10, 20]: 80
- Galium plant response rating (0 to 100 scale, 0 no effect, 100 complete control) [11, 20]: 30
- Foxtail, Giant plant response rating (0 to 100 scale, 0 no effect, 100 complete control) [12, 20]: 90
- Kochia plant response rating (Kochia (Kochia scoparia) [13]; [21]): 20
- Kochia plant response rating (0 to 100 scale where 0 is no effect and 100 is complete control) (Kochia (Kochia scoparia) [13]; [22]): 60
- Ragweed plant response rating [14, 21]: 20
- Ragweed plant response rating (0 to 100 scale where 0 is no effect and 100 is complete control) [14, 22]: 20
- Pigweed plant response rating [15, 21]: 0
- Pigweed plant response rating (0 to 100 scale where 0 is no effect and 100 is complete control) [15, 22]: 30
- Ryegrass, Italian plant response rating [16, 21]: 20
- Ryegrass, Italian plant response rating (0 to 100 scale where 0 is no effect and 100 is complete control) [16, 22]: 40
- Barnyardgrass plant response rating [17, 21]: 70
- Barnyardgrass plant response rating (0 to 100 scale where 0 is no effect and 100 is complete control) [17, 22]: 90
- Foxtail, Giant plant response rating [18, 21]: 90
- Foxtail, Giant plant response rating (0 to 100 scale where 0 is no effect and 100 is complete control) [18, 22]: 90

Compound: CN1C[C@H](c2cccc(OC(F)(F)C(F)F)c2)[C@@H](C(=O)Nc2ccccc2[S+](C)[O-])C1=O (stereo partly shown) [Compound 863]
- pest or weed control at 250 g/ha ([1]; Cyperus difformis, scale of 0 to 100 where 0 is no effect and 100 is complete control, read-out: Sedge, Umbrella plant response rating): 0%
- pest or weed control at 250 g/ha ([2]; Heteranthera limosa, scale of 0 to 100 where 0 is no effect and 100 is complete control, read-out: Ducksalad plant response rating): 0%
- pest or weed control at 250 g/ha ([3]; Echinochloa crus-galli, scale of 0 to 100 where 0 is no effect and 100 is complete control, read-out: Barnyardgrass plant response rating): 0%
- pest or weed control at 250 g/ha (rice (Oryra sativa); Oryza sativa, scale of 0 to 100 where 0 is no effect and 100 is complete control, read-out: Rice plant response rating): 0%
- pest or weed control at 125 g/ha (Kochia (Kochia scoparia) [4]; Bassia scoparia, post-emergence, 240 h, 125 g ai/ha, postemergence, visual injury rating after approximately 10 d, read-out: Kochia plant response rating (0 to 100 scale, 0 no effect, 100 complete control)): 40%
- pest or weed control at 125 g/ha ([5]; Ambrosia artemisiifolia, post-emergence, 240 h, 125 g ai/ha, postemergence, visual injury rating after approximately 10 d, read-out: Ragweed plant response rating (0 to 100 scale, 0 no effect, 100 complete control)): 0%
- pest or weed control at 125 g/ha ([6]; Amaranthus retroflexus, post-emergence, 240 h, 125 g ai/ha, postemergence, visual injury rating after approximately 10 d, read-out: Pigweed plant response rating (0 to 100 scale, 0 no effect, 100 complete control)): 50%
- pest or weed control at 125 g/ha ([7]; Alopecurus myosuroides, post-emergence, 240 h, 125 g ai/ha, postemergence, visual injury rating after approximately 10 d, read-out: Blackgrass plant response rating (0 to 100 scale, 0 no effect, 100 complete control)): 0%
- plant injury at 125 g/ha ([8]; Triticum aestivum, post-emergence, 240 h, 125 g ai/ha, postemergence, visual injury rating after approximately 10 d, read-out: Wheat plant response rating (0 to 100 scale, 0 no effect, 100 complete control)): 0%
- pest or weed control at 125 g/ha ([9]; Lolium multiflorum, post-emergence, 240 h, 125 g ai/ha, postemergence, visual injury rating after approximately 10 d, read-out: Ryegrass, Italian plant response rating (0 to 100 scale, 0 no effect, 100 complete control)): 0%
- plant injury at 125 g/ha (corn (Zea mays); Zea mays, post-emergence, 240 h, 125 g ai/ha, postemergence, visual injury rating after approximately 10 d, read-out: Corn plant response rating (0 to 100 scale, 0 no effect, 100 complete control)): 30%
- pest or weed control at 125 g/ha ([10]; Echinochloa crus-galli, post-emergence, 240 h, 125 g ai/ha, postemergence, visual injury rating after approximately 10 d, read-out: Barnyardgrass plant response rating (0 to 100 scale, 0 no effect, 100 complete control)): 70%
- pest or weed control at 125 g/ha ([11]; Galium, post-emergence, 240 h, 125 g ai/ha, postemergence, visual injury rating after approximately 10 d, read-out: Galium plant response rating (0 to 100 scale, 0 no effect, 100 complete control)): 30%
- pest or weed control at 125 g/ha ([12]; Setaria faberi, post-emergence, 240 h, 125 g ai/ha, postemergence, visual injury rating after approximately 10 d, read-out: Foxtail, Giant plant response rating (0 to 100 scale, 0 no effect, 100 complete control)): 20%
- pest or weed control at 125 g/ha (Kochia (Kochia scoparia) [13]; Bassia scoparia, pre-emergence, 240 h, 125 g ai/ha, preemergence, 0 to 100 scale where 0 is no effect and 100 is complete control, read-out: Kochia plant response rating): 80%
- pest or weed control at 125 g/ha ([14]; Ambrosia artemisiifolia, pre-emergence, 240 h, 125 g ai/ha, preemergence, 0 to 100 scale where 0 is no effect and 100 is complete control, read-out: Ragweed plant response rating): 0%
- pest or weed control at 125 g/ha ([15]; Amaranthus retroflexus, pre-emergence, 240 h, 125 g ai/ha, preemergence, 0 to 100 scale where 0 is no effect and 100 is complete control, read-out: Pigweed plant response rating): 70%
- pest or weed control at 125 g/ha ([16]; Lolium multiflorum, pre-emergence, 240 h, 125 g ai/ha, preemergence, 0 to 100 scale where 0 is no effect and 100 is complete control, read-out: Ryegrass, Italian plant response rating): 0%
- pest or weed control at 125 g/ha ([17]; Echinochloa crus-galli, pre-emergence, 240 h, 125 g ai/ha, preemergence, 0 to 100 scale where 0 is no effect and 100 is complete control, read-out: Barnyardgrass plant response rating): 50%
- pest or weed control at 125 g/ha ([18]; Setaria faberi, pre-emergence, 240 h, 125 g ai/ha, preemergence, 0 to 100 scale where 0 is no effect and 100 is complete control, read-out: Foxtail, Giant plant response rating): 90%

Compound: Cc1ccc([C@H]2CN(C)C(=O)[C@@H]2C(=O)Nc2ccccc2[S+](C)[O-])cc1Cl (stereo partly shown) [Compound 1017]
- Sedge, Umbrella plant response rating [1, 23]: 0
- Ducksalad plant response rating [2, 23]: 90
- Barnyardgrass plant response rating [3, 23]: 70
- Rice plant response rating (rice (Oryra sativa); [23]): 30
- Plant response rating, Kochia (Kochia (Kochia scoparia) [4]; [24]): 40
- Plant response rating, Kochia (Kochia (Kochia scoparia) [4]; [25]): 60
- Plant response rating, Ragweed [5, 24]: 0
- Plant response rating, Ragweed [5, 25]: 40
- Plant response rating, Pigweed [6, 24]: 0
- Plant response rating, Pigweed [6, 25]: 40
- Plant response rating, Blackgrass [7, 24]: 0
- Plant response rating, Blackgrass [7, 25]: 40
- Plant response rating, Wheat [8, 24]: 20
- Plant response rating, Wheat [8, 25]: 60
- Plant response rating, Ryegrass, Italian [9, 24]: 30
- Plant response rating, Ryegrass, Italian [9, 25]: 50
- Plant response rating, Corn (corn (Zea mays); [24]): 80
- Plant response rating, Corn (corn (Zea mays); [25]): 90
- Plant response rating, Barnyardgrass [10, 24]: 90
- Plant response rating, Barnyardgrass [10, 25]: 90
- Plant response rating, Galium [11, 24]: 40
- Plant response rating, Galium [11, 25]: 70
- Plant response rating, Foxtail, Giant [12, 24]: 90
- Plant response rating, Foxtail, Giant [12, 25]: 90
- Kochia plant response rating (0 to 100 scale, 0 is no effect, 100 is complete control) (Kochia (Kochia scoparia) [13]; [26]): 0
- Kochia plant response rating (Kochia (Kochia scoparia) [13]; [27]): 70
- Ragweed plant response rating (0 to 100 scale, 0 is no effect, 100 is complete control) [14, 26]: 0
- Ragweed plant response rating [14, 27]: 90
- Pigweed plant response rating (0 to 100 scale, 0 is no effect, 100 is complete control) [15, 26]: 50
- Pigweed plant response rating [15, 27]: 60
- Ryegrass, Italian plant response rating (0 to 100 scale, 0 is no effect, 100 is complete control) [16, 26]: 0
- Ryegrass, Italian plant response rating [16, 27]: 70
- Barnyardgrass plant response rating (0 to 100 scale, 0 is no effect, 100 is complete control) [17, 26]: 90
- Barnyardgrass plant response rating [17, 27]: 90
- Foxtail, Giant plant response rating (0 to 100 scale, 0 is no effect, 100 is complete control) [18, 26]: 90
- Foxtail, Giant plant response rating [18, 27]: 90

Source: patent US12077503B2, “Substituted cyclic amides and their use as herbicides” (FMC CORPORATION, priority 2015, dated 2024)
